Eleven compounds from patent US11247965B2 (VenatoRx Pharmaceuticals, Inc., priority 2017, dated 2022) can be followed below.

A short description of data set [1]: In vitro cytotoxicity, MTT cell viability assay in HepG2 cells. Format: cell-based. Conditions: human, Cytotoxicity CC50. In outline: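 CC50 values reflect loss of HepG2 viability after a 7-day exposure at 37 °C, 5% CO2. After 3-4 h with MTT, solubilized formazan was quantified at 492 nm relative to vehicle wells.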
The test system of data set [2] is HBV replication in HepAD38 cells. The data set can be described thus: Anti-HBV activity in HepAD38 cells, extracellular HBV DNA by QPCR. The conditions noted are these: Hepatitis B virus, HePAD38, 168 h, read-out: Anti-HBV EC50, HepAD38 cells, extracellular HBV DNA by QPCR, 7 days of incubation. The format is cell-based, HBV (genotype D, serotype ayw). In outline:
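Seven-day compound exposure (30 μM down to 10 nM, half-log steps) after tetracycline withdrawal induced HBV replication in HepAD38 cells. Extracellular viral DNA measured by QPCR (copies/mL via standard curve), normalised to DMSO wells; EC50 from 4-parameter non-linear regression.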

One may read the CC50 as the concentration giving 50% cytotoxicity. The low end stands for harm at low concentration, the high end for better tolerance by the cells. As a reminder, the EC50 is the concentration at which the effect is half-maximal. In data set [1], `O=C(Nc1ccc(F)c(F)c1)c1ccc(F)c(C(F)(F)C(=O)NC2CCCCC2)c1` [Example 8, 3-(2-(cyclohexylamino)-1,1-difluoro-2-oxoethyl)-N-(3,4-difluorophenyl)-4-fluorobenzamide] registered a CC50 at 7 days of 5 to 30 µM. Further, the EC50 in data set [2] was in the range of 5 to 30 µM.
`O=C(Nc1ccnc(Cl)c1)c1ccc(F)c(C(F)(F)C(=O)N2CCC(O)(CO)CC2)c1` [Example 198, N-(2-chloropyridin-4-yl)-3-(1,1-difluoro-2-(4-hydroxy-4-(hydroxymethyl)piperidin-1-yl)-2-oxoethyl)-4-fluorobenzamide]: the CC50 at 7 days in data set [1] was in the range of 5 to 30 µM. Also, the EC50 in data set [2] was less than 5 µM.
In data set [1], `Cc1cc(NC(=O)c2cc(C(F)(F)C(=O)N3CCC(O)CC3)ccc2Cl)ccc1F` [Example 95, 2-chloro-5-(1,1-difluoro-2-(4-hydroxypiperidin-1-yl)-2-oxoethyl)-N-(4-fluoro-3-methylphenyl)benzamide] gave a CC50 at 7 days greater than 30 µM. Besides, in data set [2], the EC50 is greater than 30 µM.
For `Cc1cc(NC(=O)c2ccc(Cl)c(C(F)(F)C(=O)N3CC=CCC3)c2)ccc1F` [Example 74, 4-chloro-3-(2-(3,6-dihydropyridin-1(2H)-yl)-1,1-difluoro-2-oxoethyl)-N-(4-fluoro-3-methylphenyl)benzamide], the CC50 at 7 days in data set [1] is 5 to 30 µM. In addition, the EC50 in data set [2] was less than 5 µM.
The matching figures for `CCCN(CCO)C(=O)C(F)(F)c1cc(C(=O)Nc2ccc(F)c(F)c2)ccc1F` [Example 52, 3-(1,1-difluoro-2-((2-hydroxyethyl)(propyl)amino)-2-oxoethyl)-N-(3,4-difluorophenyl)-4-fluorobenzamide]: greater than 30 µM and 5 to 30 µM.
Taken in the same sequence, the figures for `CC[C@@H](C)NC(=O)C(F)(F)c1c(C(=O)Nc2ccc(F)c(C)c2)ccn1C` [Example 110, (R)-2-(2-(sec-butylamino)-1,1-difluoro-2-oxoethyl)-N-(4-fluoro-3-methylphenyl)-1-methyl-1H-pyrrole-3-carboxamide] were greater than 30 µM and greater than 30 µM.
For `O=C(Nc1ccc(F)c(Cl)c1)c1ccc(F)c(C(F)(F)C(=O)N2CCC(O)C(F)(F)C2)c1` (stereo not shown) [Example 169, N-(3-chloro-4-fluorophenyl)-3-(2-(3,3-difluoro-4-hydroxypiperidin-1-yl)-1,1-difluoro-2-oxoethyl)-4-fluorobenzamide], in data set [1], the CC50 at 7 days fell in the range of 5 to 30 µM. Moreover, the EC50 in data set [2] was less than 5 µM.
In the case of `Cc1cc(NC(=O)c2ccc(F)c(C(F)(F)C(=O)N3CC4CNCC4C3)c2)ccc1F` (stereo not shown) [Example 283, 3-(1,1-difluoro-2-(hexahydropyrrolo[3,4-c]pyrrol-2(1H)-yl)-2-oxoethyl)-4-fluoro-N-(4-fluoro-3-methylphenyl)benzamide], the CC50 at 7 days in data set [1] lay in the range of 5 to 30 µM. For the same compound, the EC50 in data set [2] is less than 5 µM.
Taken in the same sequence, the figures for `Cc1cc(NC(=O)c2ccc(F)c(C(F)(F)C(=O)N3[C@H](C)CN(S(=O)(=O)c4cccnc4)C[C@@H]3C)c2)ccc1F` [Example 290, 3-(2-((2S,6R)-2,6-dimethyl-4-(pyridin-3-ylsulfonyl)piperazin-1-yl)-1,1-difluoro-2-oxoethyl)-4-fluoro-N-(4-fluoro-3-methylphenyl)benzamide] were 5 to 30 µM and less than 5 µM.
The matching figures for `Cc1cc(NC(=O)c2ccc(F)c(C(F)(F)C(=O)N3C4CC[C@@H]3C[C@@H](C(=O)NCCO)C4)c2)ccc1F` [Example 258, (1R,3s,5S)-8-(2,2-difluoro-2-(2-fluoro-5-((4-fluoro-3-methylphenyl)carbamoyl)phenyl)acetyl)-N-(2-hydroxyethyl)-8-azabicyclo[3.2.1]octane-3-carboxamide]: greater than 30 µM and less than 5 µM.
The matching figures for `N#Cc1cc(NC(=O)c2ccc(Cl)c(C(F)(F)C(=O)N3CCC(O)CC3)c2)ccc1F` [Example 33, 4-chloro-N-(3-cyano-4-fluorophenyl)-3-(1,1-difluoro-2-(4-hydroxypiperidin-1-yl)-2-oxoethyl)benzamide]: greater than 30 µM and less than 5 µM.
